Data taken from paper PMC4366281 (Nature chemical biology, 2015).

Target: T1, MtbVKOR (Mycobacterium tuberculosis, UniProt I6X5W1)
T1 sequence (I6X5W1 1-210): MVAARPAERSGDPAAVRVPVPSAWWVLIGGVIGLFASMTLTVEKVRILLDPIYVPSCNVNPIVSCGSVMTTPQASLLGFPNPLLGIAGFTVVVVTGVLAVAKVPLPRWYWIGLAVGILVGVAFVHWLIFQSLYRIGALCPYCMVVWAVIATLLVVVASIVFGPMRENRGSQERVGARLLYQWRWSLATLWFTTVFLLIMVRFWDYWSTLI
Assay: HTS agar 384-well X-Gal assay, MtbVKOR-complemented E. coli dsbB null strain
Format: cell-based
Settings: agar assay / re-test

SMILES: O=C1c2ccccc2C(=O)C1c1ccc(Br)cc1 [brominedione]
- inhibition of MtbVKOR-dependent E. coli strain: specific hit
